Reference: the Deep4Chem optical property database
Values belong to the compound of their own block, whether it stands above or below them.

Assay: photoluminescence quantum yield (fraction); solvent given as SMILES
[1] = in O=P(c1ccccc1)(c1ccccc1)c1ccccc1Oc1ccccc1P(=O)(c1ccccc1)c1ccccc1

Compound: CCCCCCCCN1c2ccc(C#Cc3ccc(OC)cc3)cc2Sc2cc(C=O)ccc21
photoluminescence quantum yield (in C1CCOC1): 0.54
photoluminescence quantum yield (in CC#N): 0.34
photoluminescence quantum yield (in CCCCCC): 0.59
photoluminescence quantum yield (in CO): 0.07
photoluminescence quantum yield (in CS(C)=O): 0.91
photoluminescence quantum yield (in Cc1ccccc1): 0.49
photoluminescence quantum yield (in ClC(Cl)Cl): 0.58

Compound: O=Cc1nc2ccc(C#Cc3ccc(N(c4ccc(C#Cc5ccc6nc(C=O)sc6c5)cc4)c4ccc(C#Cc5ccc6nc(C=O)sc6c5)cc4)cc3)cc2s1
photoluminescence quantum yield (in Cc1ccccc1): 0.65

Compound: Cc1cc(-c2nc(-c3ccccc3)nc(-c3ccccc3)n2)ccc1-n1c2ccccc2c2cc3c(cc21)C1c2ccccc2C3c2ccccc21
photoluminescence quantum yield (in Cc1ccccc1): 0.6
photoluminescence quantum yield [1]: 0.32

Compound: CCC1=C(C)C2=Cc3c4ccccc4c4n3[B-](c3ccccc3)(Oc3ccccc3-4)[N+]2=C1C (configuration not stated)
photoluminescence quantum yield (in CC#N): 0.75
photoluminescence quantum yield (in CCCCCC): 0.77
photoluminescence quantum yield (in Cc1ccccc1): 0.64
photoluminescence quantum yield (in ClCCl): 0.75

Compound: F[B-]1(F)n2c(c3cccc4cccc2c43)=Nc2ccc3ccccc3[n+]21
photoluminescence quantum yield (in C1CCOC1): 0.98
photoluminescence quantum yield (in CC#N): 0.99
photoluminescence quantum yield (in CCCCCC): 0.63
photoluminescence quantum yield (in Cc1ccccc1): 0.99
photoluminescence quantum yield (in ClCCl): 0.99

Compound: Cc1ccc2c(c1)c1cc(C)ccc1n2-c1cc(-c2nc(-c3ccccc3)nc(-c3ccccc3)n2)cc(-n2c3ccc(C)cc3c3cc(C)ccc32)c1-n1c2ccc(C)cc2c2cc(C)ccc21
photoluminescence quantum yield [1]: 1

Compound: CCCCCCC(CCCCCC)N1C(=O)c2cccc3c(-c4ccc(N(C)C)cc4)ccc(c23)C1=O
photoluminescence quantum yield (in CCCCCC): 0.7
photoluminescence quantum yield (in CCCCCCCCCCCCCC): 0.73
photoluminescence quantum yield (in CCCCCCCCCCCO): 0.14
photoluminescence quantum yield (in CCCCO): 0.013
photoluminescence quantum yield (in CN(C)C=O): 0.0037
photoluminescence quantum yield (in Cc1ccccc1): 0.65
photoluminescence quantum yield (in ClC(Cl)Cl): 0.64

Compound: Cc1cc(C)n2c1C=C1c3ccccc3C(c3c[nH]c4ccccc34)=[N+]1[B-]2(F)F
photoluminescence quantum yield (in C1CCOC1): 0.97
photoluminescence quantum yield (in CC#N): 0.96
photoluminescence quantum yield (in CCCCCC): 0.99
photoluminescence quantum yield (in CO): 0.96
photoluminescence quantum yield (in Cc1ccccc1): 0.96
photoluminescence quantum yield (in ClCCl): 0.98

Compound: COc1cccc(C2=c3c(c4ccc(C(C)(C)C)cc4c4cc(C(C)(C)C)ccc34)=[N+]3C2=C(c2ccccc2)c2c(-c4cccc(OC)c4)c4c5ccc(C(C)(C)C)cc5c5cc(C(C)(C)C)ccc5c4n2[B-]3(F)F)c1
photoluminescence quantum yield (in C1CCCCC1): 0.62
photoluminescence quantum yield (in C1CCOC1): 0.5
photoluminescence quantum yield (in CC#N): 0.52
photoluminescence quantum yield (in Cc1ccccc1): 0.43
photoluminescence quantum yield (in ClCCl): 0.54

Compound: CCCCOc1ccc(/C=C/C=C/C=C/c2ccc([N+](=O)[O-])cc2)cc1
photoluminescence quantum yield (in CC1CCCCC1): 0.25
photoluminescence quantum yield (in CC#N): 0.014
photoluminescence quantum yield (in Cc1ccccc1): 0.53
photoluminescence quantum yield (in ClCCl): 0.06

Compound: CC1=N/C(=C\c2cc(N(C)C)ccc2C#N)C(=O)N1C
photoluminescence quantum yield (in C1CCOC1): 0.19
photoluminescence quantum yield (in CC#N): 0.07
photoluminescence quantum yield (in CCCCCC): 0.6

Compound: CCCCCCCCC1(CCCCCCCC)c2ccccc2-c2ccc(-c3nnc(-c4cccc(-n5c6ccc(C(C)(C)C)cc6c6cc(C(C)(C)C)ccc65)c4)o3)cc21
photoluminescence quantum yield (in Cc1ccccc1): 0.13

Compound: COc1ccc(C2=C3C=c4c(oc5cc6c(cc45)[C@H]4CC[C@]5(C)C(=O)CC[C@H]5[C@@H]4CC6)=[N+]3[B-](F)(F)n3c2cc2c4cc5c(cc4oc23)CC[C@@H]2[C@@H]5CC[C@]3(C)C(=O)CC[C@@H]23)cc1
photoluminescence quantum yield (in CCOC(C)=O): 0.61
photoluminescence quantum yield (in CCOCC): 0.88
photoluminescence quantum yield (in CO): 0.52

Compound: F[B-]1(F)n2cccc2C=C2c3ccccc3C(c3ccc[nH]3)=[N+]21
photoluminescence quantum yield (in C1CCOC1): 0.82
photoluminescence quantum yield (in CC#N): 0.8
photoluminescence quantum yield (in CCCCCC): 0.83
photoluminescence quantum yield (in CO): 0.76
photoluminescence quantum yield (in Cc1ccccc1): 0.81
photoluminescence quantum yield (in ClCCl): 0.8

Compound: CCCCCCCCC1(CCCCCCCC)c2cc(C=O)ccc2-c2ccc(/C=C/c3ccc(N(c4ccccc4)c4ccccc4)cc3)cc21
photoluminescence quantum yield (in C1CCOC1): 0.94
photoluminescence quantum yield (in C1COCCO1): 0.67
photoluminescence quantum yield (in CC#N): 0.24
photoluminescence quantum yield (in CC(C)=O): 0.33
photoluminescence quantum yield (in CCCCCC): 0.6
photoluminescence quantum yield (in CCOC(C)=O): 0.6
photoluminescence quantum yield (in CN(C)C=O): 0.12
photoluminescence quantum yield (in CS(C)=O): 0.2
photoluminescence quantum yield (in Cc1ccccc1): 0.58
photoluminescence quantum yield (in ClC(Cl)Cl): 0.53
photoluminescence quantum yield (in ClCCl): 0.7

Compound: CC(C)(C)c1ccc(-c2c3ccccc3c3n2[B-](F)(F)[N+]2=Cc4c5ccccc5c(-c5ccc(C(C)(C)C)cc5)n4[B-](F)(F)[N+]2=C3)cc1
photoluminescence quantum yield (in CC#N): 0.26
photoluminescence quantum yield (in CCCCCC): 0.34
photoluminescence quantum yield (in CN(C)C=O): 0.28
photoluminescence quantum yield (in Cc1ccccc1): 0.34
photoluminescence quantum yield (in ClCCl): 0.34

Compound: O=S1(=O)c2ccccc2Oc2cc(N3c4ccccc4C4(c5ccccc53)c3ccccc3N(c3ccc5c(c3)Oc3ccccc3S5(=O)=O)c3ccccc34)ccc21
photoluminescence quantum yield [1]: 0.63

Compound: CC1(C)c2ccccc2N(c2ccc(-c3nnc(-c4ccc(N5c6ccccc6C(C)(C)c6ccccc65)cc4)o3)cc2)c2ccccc21
photoluminescence quantum yield [1]: 0.62

Compound: CCn1c2ccccc2c2cc(/C=C/c3cc(/C=C/c4ccc5c(c4)c4ccccc4n5CC)[n+](CCCS(=O)(=O)[O-])c(/C=C/c4ccc5c(c4)c4ccccc4n5CC)c3)ccc21
photoluminescence quantum yield (in C1CCOC1): 0.12
photoluminescence quantum yield (in CC#N): 0.05
photoluminescence quantum yield (in CC(C)=O): 0.05
photoluminescence quantum yield (in Cc1ccccc1): 0.09

Compound: CCCCN1/C(=C\c2c(-c3ccc(N(C)C)cc3)c(=O)c2=O)C=Cc2ccccc21
photoluminescence quantum yield (in C1CCCCC1): 0.0242
photoluminescence quantum yield (in Cc1ccccc1): 0.0163
photoluminescence quantum yield (in ClCCl): 0.001

Compound: Fc1ccc(-c2cc3ccc4cc(-c5ccc(F)cc5)cc5ccc(c2)c3c45)cc1
photoluminescence quantum yield (in C1CCCCC1): 0.04
photoluminescence quantum yield (in C1CCOC1): 0.07
photoluminescence quantum yield (in CC#N): 0.08
photoluminescence quantum yield (in CCCCCC): 0.02
photoluminescence quantum yield (in CCO): 0.05
photoluminescence quantum yield (in CN(C)C=O): 0.09
photoluminescence quantum yield (in CO): 0.05
photoluminescence quantum yield (in Cc1ccccc1): 0.07
photoluminescence quantum yield (in ClC(Cl)Cl): 0.04
photoluminescence quantum yield (in ClCCl): 0.05

Compound: CCN1C(=O)C(C2C(=O)c3c4ccccc4cc4cc5ccccc5c2c34)SC1=S (configuration not stated)
photoluminescence quantum yield (in C1CCOC1): 0.258
photoluminescence quantum yield (in CC#N): 0.135
photoluminescence quantum yield (in CCCCCC): 0.33
photoluminescence quantum yield (in Cc1ccccc1): 0.339
photoluminescence quantum yield (in ClCCl): 0.229

Other lines, results leading:

photoluminescence quantum yield (in C1COCCO1): 0.74
Compound: c1ccc(-c2nc(-c3ccc(-c4ccc(-c5nc(-c6ccccc6)c(-c6ccccc6)o5)cc4)cc3)oc2-c2ccccc2)cc1

photoluminescence quantum yield (in C1COCCO1): 0.031
photoluminescence quantum yield (in CC#N): 0.131
photoluminescence quantum yield (in CCO): 0.097
photoluminescence quantum yield (in CS(C)=O): 0.123
photoluminescence quantum yield (in O): 0.037
photoluminescence quantum yield (in c1ccccc1): 0.075
Compound: CCOC(=O)c1ccc(NC(=O)COc2cc3c4c([nH]c3c(C)c2C)C(=O)CCC4)cc1

photoluminescence quantum yield (in ClC(Cl)Cl): 0.51
Compound: c1ccc(-c2ccnc(-c3ccccc3)n2)cc1

photoluminescence quantum yield (in ClC(Cl)Cl): 0.31
Compound: CC1=CC(C)=[N+]2C1=C(C1=C3C(C)=CC(C)=[N+]3[B-](F)(F)n3c(C)cc(C)c31)c1c(C)cc(C)n1[B-]2(F)F

photoluminescence quantum yield (in CC#N): 0.17
Compound: COc1ccc(-c2nc3c([nH]2)C2=CC(=O)S[C@]2(C)[C@@]2(C)SC(=O)C=C32)cc1

photoluminescence quantum yield (in ClCCl): 0.08
Compound: CC1=c2ccccc2=[N+]2C1=Cc1c3ccccc3c(-c3[nH]c4ccccc4c3C)n1[B-]2(F)F

photoluminescence quantum yield (in CO): 0.17
Compound: Cc1ccc(-c2nc(-c3cccc(C#N)c3)[nH]c2-c2ccc(C)cc2)cc1

photoluminescence quantum yield (in C1COCCO1): 0.421
Compound: COc1ccc(C2=N/C(=C\c3ccc(C#N)cc3)C(=O)O2)cc1OC

photoluminescence quantum yield (in ClC(Cl)Cl): 0.09
Compound: O=c1c2ccccc2c2c(C#C[Si](c3ccccc3)(c3ccccc3)c3ccccc3)c3c(=O)c4ccccc4c3c(C#C[Si](c3ccccc3)(c3ccccc3)c3ccccc3)c12

photoluminescence quantum yield (in CCCCCC): 0.8
photoluminescence quantum yield (in CO): 0.734
photoluminescence quantum yield (in ClCCl): 0.732
Compound: N#Cc1ccc(C#Cc2ccc3ccc4ccc(C#Cc5ccc(C#N)cc5)c5ccc2c3c45)cc1

photoluminescence quantum yield (in C1CCCCC1): 0.024
Compound: c1cc2ccc3ccc4ccc5ccc1c1c2c3c4c51

photoluminescence quantum yield (in CC#N): 0.5
photoluminescence quantum yield (in CS(C)=O): 0.32
photoluminescence quantum yield (in ClC(Cl)Cl): 0.55
Compound: C#CCn1c2ccccc2c2cc(/C=C/C3=[N+]4C(=C(c5ccc(I)cc5)c5c(C)c(Cl)c(/C=C/c6ccc7c(c6)c6ccccc6n7CC#C)n5[B-]4(F)F)C(C)=C3Cl)ccc21

photoluminescence quantum yield (in c1cc(-c2cccc(-n3c4ccccc4c4ccccc43)c2)cc(-n2c3ccccc3c3ccccc32)c1): 0.89
photoluminescence quantum yield (in c1ccc2c(c1)c1ccccc1n2-c1ccc2sc3ccc(-n4c5ccccc5c5ccccc54)cc3c2c1): 0.841
photoluminescence quantum yield (in c1ccc2c(c1)c1ccccc1n2-c1ccc2sc3ccc(-n4c5ccccc5c5cccnc54)cc3c2c1): 0.982
photoluminescence quantum yield (in c1ccc2c(c1)c1cccnc1n2-c1ccc2sc3ccc(-n4c5ccccc5c5cccnc54)cc3c2c1): 0.879
Compound: Cc1cc(-n2c3ccccc3c3ccccc32)c(-n2c3ccccc3c3ccccc32)cc1C#N

photoluminescence quantum yield (in c1ccccc1): 0.606
Compound: O=c1oc2ccc3ccc(O)cc3c2nc1-c1ccccc1

photoluminescence quantum yield (in ClCCl): 0.51
Compound: CCCCCCOc1ccc2c(c1)-c1cc3c(cc1[Si]2(C)C)-c1ccccc1[Si]3(C)C

photoluminescence quantum yield (in CN(C)C=O): 0.0287
photoluminescence quantum yield (in ClC(Cl)Cl): 0.014
Compound: CCCCCCOc1ccc(N(c2ccc(OCCCCCC)cc2)c2ccc(-c3sc(-c4ccc(N(c5ccc(OCCCCCC)cc5)c5ccc(OCCCCCC)cc5)cc4)c4nc(-c5ccc(OC)cc5)c(-c5ccc(OC)cc5)nc34)cc2)cc1

photoluminescence quantum yield (in C1CCOC1): 0.75
photoluminescence quantum yield (in CC#N): 0.43
photoluminescence quantum yield (in CO): 0.21
photoluminescence quantum yield (in ClCCl): 0.62
Compound: COc1cc(-c2nc3c4cccnc4c4ncccc4c3[nH]2)c(OC)cc1/C=C/c1nc2ccccc2[nH]1

photoluminescence quantum yield (in ClCCl): 0.57
Compound: CCCCCCc1cc2c3c(c1)c(=C1c4ccccc4Sc4ccccc41)c1cc(CCCCCC)cc4c1N3c1c(cc(CCCCCC)cc1c4=C1c3ccccc3Sc3ccccc31)c2=C1c2ccccc2Sc2ccccc21

photoluminescence quantum yield (in CCCCCC): 0.74
Compound: F[B-]1(F)n2c(ccc2-c2ccccc2)C(C(F)(F)F)=C2C=CC(c3ccccc3)=[N+]21

photoluminescence quantum yield (in ClC(Cl)Cl): 0.29
Compound: CCOC(=O)c1ccc(/C=C/C2=[N+]3C(=C(c4ccccc4)c4ccc(/C=C/c5ccc(C(=O)OCC)o5)n4[B-]3(F)F)C=C2)o1

photoluminescence quantum yield (in CCO): 0.44
Compound: Cc1cc2cc3cc(C)c(C)cc3cc2cn1
